Test results as given in patent US7687500B2, “Substituted oxetanes, method of making, and method of use thereof” (The University of Connecticut, priority 2004, dated 2010).

Legend:
[1] = test system: HIV; conditions: in vitro; cited from earlier work

melting point [°C] | Compound | anti-HIV activity [1]
 | Nc1ncnc2c1ncn2[C@@H]1O[C@H](CO)[C@H]1CO [oxetanocin] | potent anti-HIV activity in vitro
119 to 123 | OCC1(n2nc3ccccc3n2)OCC1c1ccccc1 (stereo not drawn) [Example 1, 2-(Benzotriazol-2-yl)-2-(hydroxymethyl)-3-phenyloxetane] | 
77 to 78.3 | OCC1(n2nccn2)OCC1c1ccccc1 (stereo not drawn) [Example 2, 2-Hydroxymethyl-3-phenyl-2-(1,2,3-triazol-2-yl)oxetane] | 
